Reference: PubChem BioAssay (NCI)
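48-hour exposure; five concentrations; linearly interpolated endpoints. TGI denotes the concentration required for complete inhibition of growth.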 Where a SMILES comes first, the peptide text is derived from it. The star is where a group is joined. Boc = CC(C)(C)OC(=O)*

How the values were obtained:
Test in all cases: growth of human tumour cells (NCI), 48 h
SK-MEL-28 melanoma = test system: SK-MEL-28 melanoma
HOP-62 NSCLC = test system: HOP-62 NSCLC
SF-539 CNS = test system: SF-539 CNS
HCT-116 colon = test system: HCT-116 colon
HCT-15 colon = test system: HCT-15 colon
MCF7 breast = test system: MCF7 breast
SF-268 CNS = test system: SF-268 CNS
A498 renal = test system: A498 renal
NCI-H226 lung = test system: NCI-H226 lung
SNB-75 CNS = test system: SNB-75 CNS
UO-31 renal = test system: UO-31 renal
NCI-H522 lung = test system: NCI-H522 lung
CAKI-1 renal = test system: CAKI-1 renal

Row | Structure (SMILES) | TGI (SK-MEL-28 melanoma) [µM] | TGI (HOP-62 NSCLC) [µM] | TGI (SF-539 CNS) [µM] | TGI (HCT-116 colon) [µM] | TGI (HCT-15 colon) [µM] | TGI (MCF7 breast) [µM] | TGI (SF-268 CNS) [µM] | TGI (A498 renal) [µM] | TGI (NCI-H226 lung) [µM] | TGI (SNB-75 CNS) [µM] | TGI (UO-31 renal) [µM] | TGI (NCI-H522 lung) [µM] | TGI (CAKI-1 renal) [µM]
1 | COc1ccc2nc3c(C)cc4ccccc4n3c2c1 | > 100 | > 100 | > 100 | > 100 | > 100 | > 100 | > 100 | 65.4 | > 100 | > 100 | > 100 | – | –
2 | CCC(=O)N(c1ccccc1)C(C)CN1CCC(O)(c2cccc(C(F)(F)F)c2)CC1 (stereo not drawn) | 61.2 | 42.3 | 49 | 31.1 | 90.9 | – | – | 66.3 | 76.5 | 76.3 | 72.6 | 39 | > 100
3 | O=c1sc(Nc2ccc3ccccc3c2Cl)nc2ccccc12 | > 100 | > 100 | > 100 | > 100 | > 100 | > 100 | > 100 | – | – | > 100 | > 100 | > 100 | > 100
4 | NC1=NCC(CN2CCCCC2)O1 (stereo not drawn) | > 100 | > 100 | > 100 | > 100 | > 100 | > 100 | > 100 | – | > 100 | > 100 | > 100 | > 100 | > 100
5 | Cc1nn(C(=O)c2ccc(Cl)cc2)c2c1C(c1ccccc1O)SC(N)=N2 (stereo not drawn) | > 10 | > 10 | > 10 | > 10 | > 10 | > 10 | > 10 | – | > 10 | > 10 | – | > 10 | > 10
6 | Cc1cc(O)c2c(c1)C(C1OC(CO)C(O)C(O)C1O)c1cc(O)cc(O)c1C2=O (stereo not drawn) | > 100 | > 100 | – | > 100 | > 100 | > 100 | > 100 | > 100 | > 100 | > 100 | > 100 | – | –
7 | CC1(c2nc3ccccc3[nH]2)CCC(C#N)C(C)(C)O1 (stereo not drawn) | > 100 | > 100 | > 100 | > 100 | > 100 | > 100 | > 100 | – | > 100 | > 100 | > 100 | > 100 | > 100
8 | CC(NC(=O)C1CCCN1C(=O)CNC(=O)OC(C)(C)C)C(=O)O (stereo not drawn) (Boc-Gly-Pro-Ala-OH; configuration not given here) | > 100 | > 100 | > 100 | – | > 100 | > 100 | > 100 | – | > 100 | > 100 | > 100 | > 100 | > 100
9 | CC1OC(OC2C(OC(=O)[C@]34CCC(C)(C)CC3C3=CCC5[C@@]6(C)C[C@H](O)[C@H](OC7OC(COC8OC(CO)C(O)C(O)C8O)C(O)C(O)C7O)[C@@](C)(C(=O)O)C6CC[C@@]5(C)C3(C)CC4)OCC(O)C2O)C(O)C(O)C1OC1OCC(O)C(O)C1O (stereo partly drawn) | > 100 | > 100 | > 100 | – | > 100 | – | > 100 | > 100 | > 100 | > 100 | > 100 | > 100 | > 100
10 | Clc1cc2nc(C3CCCCO3)[nH]c2cc1Cl (stereo not drawn) | > 100 | > 100 | 97 | > 100 | > 100 | 36.5 | > 100 | – | > 100 | 58.4 | > 53.3 | 18.5 | > 100
11 | CO[C@H](C(=O)O[C@H]1C(=O)N2CC[C@@H]3CCC[C@H]1C32C)c1ccccc1 (stereo partly drawn) | > 100 | > 100 | > 100 | > 100 | – | – | > 100 | – | > 100 | – | > 100 | > 100 | > 100
12 | OCC(O)C(O)C(O)C(O)CNCCO/N=C1/C(c2c(O)[nH]c3ccccc23)=Nc2ccccc21 (stereo not drawn) | 20.7 | 22.9 | 41.6 | 38.2 | > 50 | 33.1 | 28 | – | > 50 | 24.5 | > 50 | 33 | > 50
13 | O=C(O)CCNc1ncc2c(n1)-c1ccccc1OC2 | > 100 | > 100 | > 100 | > 100 | > 100 | > 100 | > 100 | – | > 100 | > 100 | > 100 | > 100 | > 100
14 | O=C(NC1CCN(Cc2ccccc2)CC1)c1cccc(I)c1 | 37.4 | 30.6 | 51.6 | 28.9 | 35.6 | – | > 100 | > 100 | 78.1 | – | 31.6 | 32.9 | 54.5
15 | CCOC(=O)c1cc(-c2ccc([N+](=O)[O-])cc2)c([N+](=O)[O-])[nH]1 | – | – | > 10 | > 10 | > 10 | – | > 10 | – | 5.77 | > 10 | 9.69 | > 10 | –
16 | COC(=O)C1CC(c2ccc(Cl)cc2)=NO1 (stereo not drawn) | > 100 | > 100 | > 100 | > 100 | > 100 | – | > 100 | > 100 | > 100 | > 100 | > 100 | > 100 | –
17 | C/C(=N\Nc1nc2ccccc2o1)c1ncccn1 | 28.6 | 2.91 | 1.03 | 17 | 20.3 | – | > 72.2 | 15.8 | 0.64 | – | 0.609 | 22.3 | 1.57
18 | CC(NC(=O)C(N)CC(=O)O)C(=O)OC12CC3CC(CC(C3)C1)C2 (stereo not drawn) | > 100 | – | – | > 100 | > 100 | > 100 | > 100 | – | – | > 100 | > 100 | > 100 | > 100
19 | O=c1ccn(Cc2ccccc2CCl)c(=O)[nH]1 | > 100 | 52.7 | 52.7 | 46 | 35.8 | 77.9 | 75.8 | – | – | > 100 | 77.3 | 43.9 | 64
20 | COc1ccc(N=C(CS(=O)c2ccc(C)cc2)C(F)(F)F)cc1 (stereo not drawn) | > 100 | – | > 100 | > 100 | > 100 | > 100 | – | – | > 100 | > 100 | > 100 | > 100 | > 100
21 | CN1C(=S)CSc2ccccc21 | > 100 | > 100 | > 100 | > 100 | > 100 | – | > 100 | – | > 100 | > 100 | > 100 | > 100 | > 100
22 | N#CC(NNC(=O)c1c(Cl)c(Cl)c(Cl)c(Cl)c1-c1nc2ccc(C(=O)c3ccccc3)cc2[nH]1)c1ccccc1 (stereo not drawn) | > 100 | 63.7 | 14.5 | > 100 | > 100 | 12.7 | > 100 | – | 28.3 | 27.8 | > 100 | 18 | > 100
23 | COc1ccc(C[n+]2cccc(O)c2)cc1 | > 100 | > 100 | > 100 | > 100 | – | > 100 | > 100 | > 100 | > 100 | – | > 100 | – | –
24 | COc1ccc(C(=O)N2CCN(c3ccc4c(c3)OCC(=O)N4)CC2)cc1OC | > 100 | > 100 | > 100 | > 100 | > 100 | > 100 | > 100 | – | > 100 | > 100 | > 100 | > 100 | –
25 | Cc1ccc(N=NN(C)C(C)C(O)Cc2ccccc2)cc1 (stereo not drawn) | > 100 | > 100 | – | > 100 | > 100 | > 100 | > 100 | – | > 100 | > 100 | > 100 | – | > 100
26 | CC1=NNC(=O)C1C1CC(c2c[nH]c3ccccc23)=NN(c2ccccc2)C1=O (stereo not drawn) | > 100 | > 100 | > 100 | > 100 | > 100 | – | > 100 | > 100 | > 100 | > 100 | > 100 | 77.9 | > 100
27 | Cc1n[nH]c(=O)n1Nc1ccccc1 | > 100 | > 100 | > 100 | > 100 | > 100 | > 100 | > 100 | – | > 100 | > 100 | > 100 | > 100 | > 100
28 | O=C1NC(=S)N/C1=C\c1ccc(Cl)cc1 | > 100 | > 100 | > 100 | > 100 | > 100 | > 100 | > 100 | – | > 100 | > 100 | > 100 | > 100 | > 100
29 | O=C1C[C@@H]2[C@@H](CCC23CCCC3)N1 | > 100 | > 100 | > 100 | > 100 | > 100 | – | > 100 | > 100 | > 100 | > 100 | > 100 | > 100 | > 100
30 | C=CCOC1CC(n2cnc3c(N)ncnc32)OC1CO (stereo not drawn) | > 100 | > 100 | > 100 | > 100 | > 100 | – | > 100 | – | > 100 | > 100 | > 100 | > 100 | > 100
